Measured values: PubChem BioAssay (NCI)
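Five concentrations, 48 hours, 96-well plates. TGI: concentration producing complete growth inhibition.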

How the values were obtained:
Experiment in all cases: DTP human tumour cell line panel, 48 h
NCI-H460 lung = tested on: NCI-H460 lung
PC-3 prostate = tested on: PC-3 prostate
SK-MEL-5 melanoma = tested on: SK-MEL-5 melanoma
UACC-257 melanoma = tested on: UACC-257 melanoma
SF-295 CNS = tested on: SF-295 CNS
HCC-2998 colon = tested on: HCC-2998 colon
SW-620 colon = tested on: SW-620 colon
A498 renal = tested on: A498 renal
LOX IMVI melanoma = tested on: LOX IMVI melanoma
SK-MEL-28 melanoma = tested on: SK-MEL-28 melanoma
SK-OV-3 ovarian = tested on: SK-OV-3 ovarian
MOLT-4 leukemia = tested on: MOLT-4 leukemia
IGROV1 ovarian = tested on: IGROV1 ovarian
DU-145 prostate = tested on: DU-145 prostate
HCT-15 colon = tested on: HCT-15 colon
M14 melanoma = tested on: M14 melanoma
RXF 393 renal = tested on: RXF 393 renal
MDA-N = tested on: MDA-N
HT29 colon = tested on: HT29 colon
TK-10 renal = tested on: TK-10 renal

SMILES | TGI (NCI-H460 lung) | TGI (PC-3 prostate) | TGI (SK-MEL-5 melanoma) | TGI (UACC-257 melanoma) | TGI (SF-295 CNS) | TGI (HCC-2998 colon) | TGI (SW-620 colon) | TGI (A498 renal) | TGI (LOX IMVI melanoma) | TGI (SK-MEL-28 melanoma) | TGI (SK-OV-3 ovarian) | TGI (MOLT-4 leukemia) | TGI (IGROV1 ovarian) | TGI (DU-145 prostate) | TGI (HCT-15 colon) | TGI (M14 melanoma) | TGI (RXF 393 renal) | TGI (MDA-N) | TGI (HT29 colon) | TGI (TK-10 renal)
COc1cc(C(C[N+](=O)[O-])SC(C)=O)ccc1OCc1ccccc1 (stereo not given) | 25.1 µM | 17.4 µM | 21.9 µM | 10.5 µM | 10.3 µM | 46.6 µM | 10.6 µM | 15.4 µM | 3.35 µM | 6.79 µM | 29.6 µM | 5.52 µM | 7.36 µM | 27.1 µM | 9.11 µM | 11.2 µM | 3.18 µM | 8.54 µM | > 20.9 µM | 14.7 µM
COC1CC(C)([N+](=O)[O-])C(O)C(C)O1 (stereo not given) | > 100 µM | > 100 µM | > 100 µM | > 100 µM | > 100 µM | > 100 µM | > 100 µM | > 100 µM | > 100 µM | > 100 µM | > 100 µM | > 100 µM | > 100 µM | > 100 µM | > 100 µM | > 100 µM | > 100 µM | > 100 µM | > 100 µM | > 100 µM
CCCCC(/C=C\COC1CCCCO1)=C/C(=O)OCC (stereo not given) | > 100 µM | > 100 µM | > 100 µM | > 100 µM | > 100 µM | > 100 µM | > 100 µM | > 100 µM | > 100 µM | > 100 µM | > 100 µM | 71.5 µM | > 100 µM | > 100 µM | > 100 µM | > 100 µM | > 100 µM | > 100 µM | > 100 µM | > 100 µM
CC(=O)OCC1OC(n2c(N)c(C#N)c(C)c(C#N)c2=S)C(OC(C)=O)C(OC(C)=O)C1OC(C)=O (stereo not given) | > 100 µM | > 100 µM | > 100 µM | > 100 µM | > 100 µM | > 100 µM | > 100 µM | > 100 µM | > 100 µM | > 100 µM | > 100 µM | > 100 µM | > 100 µM | > 100 µM | > 100 µM | > 100 µM | > 100 µM | > 100 µM | > 100 µM | > 100 µM
Cc1cc(S(=O)(=O)Nc2n[nH]c(Nc3ccc4ccccc4c3)n2)c(S)cc1Cl | > 100 µM | > 100 µM | > 100 µM | > 100 µM | 76.9 µM | > 100 µM | > 100 µM | > 100 µM | > 100 µM | > 100 µM | > 100 µM | > 100 µM | > 100 µM | > 100 µM | > 100 µM | > 100 µM | > 100 µM | 39 µM | > 100 µM | > 100 µM
O=[N+]([O-])c1ccc(C2=NOC(c3ccc(Cl)cc3)N2C23CC4CC(CC(C4)C2)C3)cc1 (stereo not given) | > 100 µM | > 100 µM | > 100 µM | > 100 µM | > 100 µM | > 100 µM | > 100 µM | > 100 µM | > 100 µM | > 100 µM | > 100 µM | > 100 µM | > 100 µM | > 100 µM | > 100 µM | > 100 µM | 9.89 µM | > 100 µM | > 100 µM | > 100 µM
COc1ccc(NC(=O)CC(=O)NNC(Sc2ccccc2)c2cc(N=Nc3ccc(Br)cc3)ccc2O)cc1 (stereo not given) | > 10 µM | > 10 µM | > 10 µM | > 10 µM | > 10 µM | > 10 µM | > 10 µM | > 10 µM | > 10 µM | > 10 µM | > 10 µM | > 10 µM | > 10 µM | > 10 µM | > 10 µM | > 10 µM | > 10 µM | > 10 µM | > 10 µM | > 10 µM
NC(=O)NNCc1c(-c2ccccc2)no[n+]1[O-] | > 100 µM | > 100 µM | > 100 µM | > 100 µM | > 100 µM | > 100 µM | > 100 µM | > 100 µM | > 100 µM | > 100 µM | > 100 µM | > 100 µM | > 100 µM | > 100 µM | > 100 µM | > 100 µM | > 100 µM | > 100 µM | > 100 µM | > 100 µM
CCCCCCSCC/C(C)=N\OC | > 100 µM | > 100 µM | > 100 µM | > 100 µM | > 100 µM | > 100 µM | > 100 µM | > 100 µM | > 100 µM | > 100 µM | > 100 µM | > 100 µM | > 100 µM | > 100 µM | > 100 µM | > 100 µM | > 100 µM | > 100 µM | > 100 µM | > 100 µM
c1ccc(-c2c3c(nc4c2CC[C@H]4NC2=NCCN2)[C@@H](NC2=NCCN2)CC3)cc1 | > 100 µM | > 100 µM | > 100 µM | > 100 µM | > 100 µM | > 100 µM | > 100 µM | > 100 µM | > 100 µM | > 100 µM | > 100 µM | > 100 µM | > 100 µM | > 100 µM | > 100 µM | > 100 µM | > 100 µM | > 100 µM | > 100 µM | > 100 µM
Cc1nc(C)c(N2CCN(C(=O)O)CC2)c(=O)[nH]1 | > 100 µM | > 100 µM | > 100 µM | > 100 µM | > 100 µM | > 100 µM | > 100 µM | > 100 µM | > 100 µM | > 100 µM | > 100 µM | > 100 µM | > 100 µM | > 100 µM | > 100 µM | > 100 µM | > 100 µM | > 100 µM | > 100 µM | > 100 µM
CN=C(N)N=Nc1c(O)[nH]c2ccccc12 | > 100 µM | > 100 µM | > 100 µM | > 100 µM | > 100 µM | > 100 µM | > 100 µM | > 100 µM | > 100 µM | > 100 µM | > 100 µM | > 100 µM | > 100 µM | > 100 µM | > 100 µM | > 100 µM | > 100 µM | > 100 µM | > 100 µM | > 100 µM
COC(=O)C1=C(OC(=O)/C=C/c2ccc(Cl)cc2)C(C(=O)OC)[C@]2(O)[C@@H](C(=O)OC)[C@H]1C[C@@H](c1ccccc1)[C@@H]2C(=O)OC (stereo not given in full) | > 100 µM | > 47.6 µM | 12.7 µM | > 100 µM | > 100 µM | 46.9 µM | > 100 µM | 44.2 µM | > 70.4 µM | > 100 µM | > 100 µM | > 100 µM | > 25.9 µM | > 100 µM | > 47.1 µM | 49.8 µM | > 100 µM | > 23.1 µM | > 100 µM | > 100 µM
CCN(CC)c1ccc2cc(C(=O)NCc3ccccc3)c(=N)oc2c1 | > 100 µM | > 100 µM | > 100 µM | > 100 µM | > 100 µM | > 100 µM | > 100 µM | > 100 µM | > 100 µM | > 100 µM | > 100 µM | > 100 µM | > 100 µM | > 100 µM | > 100 µM | > 100 µM | > 100 µM | > 100 µM | 36 µM | > 100 µM
N/C(=N\N=C\c1cc(I)cc(I)c1O)NO | > 100 µM | > 100 µM | > 100 µM | > 100 µM | > 100 µM | > 100 µM | > 100 µM | > 100 µM | > 100 µM | > 100 µM | > 100 µM | > 100 µM | > 100 µM | > 100 µM | > 100 µM | 44.2 µM | > 100 µM | > 100 µM | > 100 µM | > 100 µM
